Several values for one entry are separate records, joined by “and”; a condition that tells them apart may be missing. Equal entries are not always repeated.
Test system: rat model of bone cancer pain (Walker 256 rat mammary gland carcinoma cells injected into the right tibia)
Experiment: Mechanical allodynia (Von Frey test) in a rat model of bone cancer pain
Type: in vivo, Rat (Sprague-Dawley)
Description: The objective of this study was to assess the potential anti-nociceptive and anti-tumourigenic effects of Compound 1, at doses of 15, 30 and 45 mg/kg, in an animal model of bone cancer pain. Metastasis of cancer cells to the bone was modeled by injecting Walker 256 rat mammary gland carcinoma cells into the medullary cavity of the right tibia (Mao-Yinga, et al. A rat model of bone cancer pain induced by intra-tibia inoculation of Walker 256 mammary gland carcinoma cells. Biochem Biophys Res Commun 2006; 345: 1292-1298). The development of mechanical allodynia was monitored using an established behavioural test (Von Frey test). Treatment administration was chronic, from the day of surgery, and administered twice daily for 21 days to determine whether there was a prophylactic effect on the development of mechanical allodynia. Zoledronic acid was used as a reference substance. No regulatory test guidelines were applicable to this study.
Rats have been studied in this model of bone cancer pain. The route of administration of Compound 1 and vehicle was oral. The doses of Compound 1 were 15, 30 and 45 mg/kg, twice a day (approximately 10 h apart) for 21 days.
The dose of zoledronic acid was 30 μg/kg, as a single administration, every second day from the day of surgery, based on historical data. The route of administration of zoledronic acid was subcutaneous.
The dose volume for test substance and vehicle treatments was 5 mL/kg. The vehicle for Compound 1 was corn oil. Each rat allocated to test substance or vehicle treatments received an oral dose, by gavage, twice daily (approximately 8 am and 6 pm) for 21 consecutive days. The dose volume for the reference substance treatment was 1 mL/kg. Each rat allocated to reference substance treatment received a single subcutaneous dose, by injection (approximately 8 am) every second day from the day of surgery.
Cell preparation. Walker 256 rat mammary gland carcinoma cells (obtained from the American Type Culture Collection (ATCC)) were harvested from sub-confluent cultures growing in vitro and the number of viable cells determined. Cells were then re-suspended in sterile phosphate buffered saline (PBS) at a concentration of 4×10^5 cells. Female Sprague-Dawley rats were intratibially injected in the right leg with 4×10^5 Walker 256 rat mammary gland carcinoma cells in a volume of 6 μL as detailed in Surgical procedure below.
Baseline behavioural testing. The rats were moved to the procedure room 5 days prior to behavioural testing. The rats were then housed, dosed and observed in the procedure room. The behavioural test was performed on all rats on 2 separate occasions prior to surgery, to establish baseline values. Pre-surgery baseline values were taken as the data from the final (second) day of testing (the data from the first day of testing was not included but classed as part of the acclimatisation).
Mechanical allodynia (Von Frey test): Each animal was placed in a wire mesh cage and a series of Von Frey filaments were applied to the plantar surface of the hind paw, from below. The filaments were applied in ascending order (starting with the weakest force), and the withdrawal threshold for both the left and right hind paws were evaluated. Each filament was indented on the mid-plantar surface of the foot to the point where it just started to bend; this was repeated approximately 8 to 10 times per filament at a frequency of approximately 1 Hz. The withdrawal threshold was defined as the lowest force of two or more consecutive Von Frey filaments to elicit a reflex withdrawal response (i.e. a brief paw flick).
Surgical procedure. The animals were surgically prepared over 2 days. Each rat was anaesthetised as necessary with isofluorane in […]. The surface around the incision site was shaved and sterilised. Under aseptic conditions, an incision was made in the skin over the top of the right tibia to expose the tibia head with minimal damage. […]

[1] = 15 mg/kg p.o. twice daily, Day 6, left paw
[2] = 15 mg/kg p.o. twice daily, Day 6, right paw
[3] = 15 mg/kg p.o. twice daily, Day 12, left paw
[4] = 15 mg/kg p.o. twice daily, Day 12, right paw
[5] = 15 mg/kg p.o. twice daily, Day 14, left paw
[6] = 15 mg/kg p.o. twice daily, Day 14, right paw
[7] = 15 mg/kg p.o. twice daily, Day 19, left paw
[8] = 15 mg/kg p.o. twice daily, Day 19, right paw
[9] = 15 mg/kg p.o. twice daily, Day 21, left paw
[10] = 15 mg/kg p.o. twice daily, Day 21, right paw
[11] = 15 mg/kg p.o. twice daily, Pre-Surgery, left paw
[12] = 15 mg/kg p.o. twice daily, Pre-Surgery, right paw
[13] = 30 mg/kg p.o. twice daily, Day 6, left paw
[14] = 30 mg/kg p.o. twice daily, Day 6, right paw
[15] = 30 mg/kg p.o. twice daily, Day 12, left paw
[16] = 30 mg/kg p.o. twice daily, Day 12, right paw
[17] = 30 mg/kg p.o. twice daily, Day 14, left paw
[18] = 30 mg/kg p.o. twice daily, Day 14, right paw
[19] = 30 mg/kg p.o. twice daily, Day 19, left paw
[20] = 30 mg/kg p.o. twice daily, Day 19, right paw
[21] = 30 mg/kg p.o. twice daily, Day 21, left paw
[22] = 30 mg/kg p.o. twice daily, Day 21, right paw
[23] = 30 mg/kg p.o. twice daily, Pre-Surgery, left paw
[24] = 30 mg/kg p.o. twice daily, Pre-Surgery, right paw
[25] = 45 mg/kg p.o. twice daily, Day 6, left paw
[26] = 45 mg/kg p.o. twice daily, Day 6, right paw
[27] = 45 mg/kg p.o. twice daily, Day 12, left paw
[28] = 45 mg/kg p.o. twice daily, Day 12, right paw
[29] = 45 mg/kg p.o. twice daily, Day 14, left paw
[30] = 45 mg/kg p.o. twice daily, Day 14, right paw
[31] = 45 mg/kg p.o. twice daily, Day 19, left paw
[32] = 45 mg/kg p.o. twice daily, Day 19, right paw
[33] = 45 mg/kg p.o. twice daily, Day 21, left paw
[34] = 45 mg/kg p.o. twice daily, Day 21, right paw
[35] = 45 mg/kg p.o. twice daily, Pre-Surgery, left paw
[36] = 45 mg/kg p.o. twice daily, Pre-Surgery, right paw

SMILES: COC1=C(OC)C(O)C(C/C=C(\C)CC/C=C(\C)CCC=C(C)C)C(C)C1=O (stereo not drawn) [Compound 1, 4-hydroxy-2,3-dimethoxy-6-methyl-5-(3,7,11-trimethyldodeca-2,6,10-trienyl)cyclohex-2-enone]
- Withdrawal Threshold (Log 10 (force (g) × 10 000)) on Day Post-Operative [1]: 5.33 Log 10 (force (g) × 10 000)
- Withdrawal threshold (g) on day post-operative [1]: 21.65 g
- Withdrawal Threshold (Log 10 (force (g) × 10 000)) on Day Post-Operative [2]: 5.31 Log 10 (force (g) × 10 000)
- Withdrawal threshold (g) on day post-operative [2]: 20.81 g
- Withdrawal Threshold (Log 10 (force (g) × 10 000)) on Day Post-Operative [3]: 5.19 Log 10 (force (g) × 10 000)
- Withdrawal threshold (g) on day post-operative [3]: 16.27 g
- Withdrawal Threshold (Log 10 (force (g) × 10 000)) on Day Post-Operative [4]: 4.99 Log 10 (force (g) × 10 000)
- Withdrawal threshold (g) on day post-operative [4]: 11.12 g
- Withdrawal Threshold (Log 10 (force (g) × 10 000)) on Day Post-Operative [5]: 5.18 Log 10 (force (g) × 10 000)
- Withdrawal threshold (g) on day post-operative [5]: 16.61 g
- Withdrawal Threshold (Log 10 (force (g) × 10 000)) on Day Post-Operative [6]: 4.91 Log 10 (force (g) × 10 000)
- Withdrawal threshold (g) on day post-operative [6]: 9.97 g
- Withdrawal Threshold (Log 10 (force (g) × 10 000)) on Day Post-Operative [7]: 5.08 Log 10 (force (g) × 10 000)
- Withdrawal threshold (g) on day post-operative [7]: 13.83 g
- Withdrawal Threshold (Log 10 (force (g) × 10 000)) on Day Post-Operative [8]: 4.76 Log 10 (force (g) × 10 000)
- Withdrawal threshold (g) on day post-operative [8]: 8.36 g
- Withdrawal Threshold (Log 10 (force (g) × 10 000)) on Day Post-Operative [9]: 5.06 Log 10 (force (g) × 10 000)
- Withdrawal threshold (g) on day post-operative [9]: 13.74 ± 2.42 g and 13.74 g
- Withdrawal Threshold (Log 10 (force (g) × 10 000)) on Day Post-Operative [10]: 4.80 Log 10 (force (g) × 10 000)
- Withdrawal threshold (g) on day post-operative [10]: 7.82 ± 1.43 g and 7.82 g
- Withdrawal Threshold (Log 10 (force (g) × 10 000)) on Day Post-Operative [11]: 5.33 Log 10 (force (g) × 10 000)
- Withdrawal threshold (g) on day post-operative [11]: 21.79 g
- Withdrawal Threshold (Log 10 (force (g) × 10 000)) on Day Post-Operative [12]: 5.33 Log 10 (force (g) × 10 000)
- Withdrawal threshold (g) on day post-operative [12]: 21.79 g
- Withdrawal Threshold (Log 10 (force (g) × 10 000)) on Day Post-Operative [13]: 5.35 Log 10 (force (g) × 10 000)
- Withdrawal threshold (g) on day post-operative [13]: 22.55 g
- Withdrawal Threshold (Log 10 (force (g) × 10 000)) on Day Post-Operative [14]: 5.32 Log 10 (force (g) × 10 000)
- Withdrawal threshold (g) on day post-operative [14]: 21.02 g
- Withdrawal Threshold (Log 10 (force (g) × 10 000)) on Day Post-Operative [15]: 5.24 Log 10 (force (g) × 10 000)
- Withdrawal threshold (g) on day post-operative [15]: 18.34 g
- Withdrawal Threshold (Log 10 (force (g) × 10 000)) on Day Post-Operative [16]: 5.00 Log 10 (force (g) × 10 000)
- Withdrawal threshold (g) on day post-operative [16]: 11.15 g
- Withdrawal Threshold (Log 10 (force (g) × 10 000)) on Day Post-Operative [17]: 5.16 Log 10 (force (g) × 10 000)
- Withdrawal threshold (g) on day post-operative [17]: 15.71 g
- Withdrawal Threshold (Log 10 (force (g) × 10 000)) on Day Post-Operative [18]: 4.86 Log 10 (force (g) × 10 000)
- Withdrawal threshold (g) on day post-operative [18]: 8.55 g
- Withdrawal Threshold (Log 10 (force (g) × 10 000)) on Day Post-Operative [19]: 5.12 Log 10 (force (g) × 10 000)
- Withdrawal threshold (g) on day post-operative [19]: 14.04 g
- Withdrawal Threshold (Log 10 (force (g) × 10 000)) on Day Post-Operative [20]: 4.91 Log 10 (force (g) × 10 000)
- Withdrawal threshold (g) on day post-operative [20]: 9.07 g
- Withdrawal Threshold (Log 10 (force (g) × 10 000)) on Day Post-Operative [21]: 5.05 Log 10 (force (g) × 10 000)
- Withdrawal threshold (g) on day post-operative [21]: 11.40 ± 0.81 g and 11.40 g
- Withdrawal Threshold (Log 10 (force (g) × 10 000)) on Day Post-Operative [22]: 4.82 Log 10 (force (g) × 10 000)
- Withdrawal threshold (g) on day post-operative [22]: 8.15 ± 1.43 g and 8.15 g
- Withdrawal Threshold (Log 10 (force (g) × 10 000)) on Day Post-Operative [23]: 5.33 Log 10 (force (g) × 10 000)
- Withdrawal threshold (g) on day post-operative [23]: 21.79 g
- Withdrawal Threshold (Log 10 (force (g) × 10 000)) on Day Post-Operative [24]: 5.33 Log 10 (force (g) × 10 000)
- Withdrawal threshold (g) on day post-operative [24]: 21.79 g
- Withdrawal Threshold (Log 10 (force (g) × 10 000)) on Day Post-Operative [25]: 5.35 Log 10 (force (g) × 10 000)
- Withdrawal threshold (g) on day post-operative [25]: 22.55 g
- Withdrawal Threshold (Log 10 (force (g) × 10 000)) on Day Post-Operative [26]: 5.35 Log 10 (force (g) × 10 000)
- Withdrawal threshold (g) on day post-operative [26]: 22.55 g
- Withdrawal Threshold (Log 10 (force (g) × 10 000)) on Day Post-Operative [27]: 5.31 Log 10 (force (g) × 10 000)
- Withdrawal threshold (g) on day post-operative [27]: 20.81 g
- Withdrawal Threshold (Log 10 (force (g) × 10 000)) on Day Post-Operative [28]: 5.16 Log 10 (force (g) × 10 000)
- Withdrawal threshold (g) on day post-operative [28]: 15.98 g
- Withdrawal Threshold (Log 10 (force (g) × 10 000)) on Day Post-Operative [29]: 5.35 Log 10 (force (g) × 10 000)
- Withdrawal threshold (g) on day post-operative [29]: 22.48 g
- Withdrawal Threshold (Log 10 (force (g) × 10 000)) on Day Post-Operative [30]: 5.30 Log 10 (force (g) × 10 000)
- Withdrawal threshold (g) on day post-operative [30]: 20.41 g
- Withdrawal Threshold (Log 10 (force (g) × 10 000)) on Day Post-Operative [31]: 5.29 Log 10 (force (g) × 10 000)
- Withdrawal threshold (g) on day post-operative [31]: 20.12 g
- Withdrawal Threshold (Log 10 (force (g) × 10 000)) on Day Post-Operative [32]: 5.24 Log 10 (force (g) × 10 000)
- Withdrawal threshold (g) on day post-operative [32]: 18.58 g
- Withdrawal Threshold (Log 10 (force (g) × 10 000)) on Day Post-Operative [33]: 5.29 Log 10 (force (g) × 10 000)
- Withdrawal threshold (g) on day post-operative [33]: 20.12 ± 1.67 g and 20.12 g
- Withdrawal Threshold (Log 10 (force (g) × 10 000)) on Day Post-Operative [34]: 5.25 Log 10 (force (g) × 10 000)
- Withdrawal threshold (g) on day post-operative [34]: 19.06 ± 2.17 g and 19.06 g
- Withdrawal Threshold (Log 10 (force (g) × 10 000)) on Day Post-Operative [35]: 5.33 Log 10 (force (g) × 10 000)
- Withdrawal threshold (g) on day post-operative [35]: 21.79 g
- Withdrawal Threshold (Log 10 (force (g) × 10 000)) on Day Post-Operative [36]: 5.33 Log 10 (force (g) × 10 000)
- Withdrawal threshold (g) on day post-operative [36]: 21.79 g
